According to US20260109732A1, “LIPID AMINES” (ModernaTX, Inc., priority 2021, published 2026):
Where a name gives a salt, the structure may show the parent alone.

Columns and labels:
[1] = Diameter and PDI from DLS measurements of mRNA nanoparticles with lipid amines; assay type: physicochemical
How it was run: (§1)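 Ionizable lipid nanoparticles (IL1:DSPC:cholesterol:PEG-DMG-2K) formed by vortex mixing at pH 4, loaded with luciferase or CFTR mRNA at N:P 4.93, neutralized with TRIS pH 8.12, then modified with lipid amine SA50 at pH 7.5. Particle diameter and PDI read by DLS; mRNA encapsulation by Ribogreen assay.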

[2] = Encapsulation of mRNA nanoparticles with lipid amines using Ribogreen assay; assay type: physicochemical
How it was run: as §1

HeLa cells [3] = assay: Luciferase Protein Expression Assay in HeLa Cells; assay type: cell-based, Human; conditions: LNPs encapsulating Luciferase mRNA, 25 ng per well, N=4 wells; 5 h serum-free then 24 h; ONE-Glo
How it was run: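 HeLa cells received LNPs carrying luciferase mRNA (25 ng per well) or PBS in serum-free MEM for 5 h, then complete MEM for a further 24 h. Luciferase then read by ONE-Glo luminescence after lysis and reported as average RLU of 4 replicate wells.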

HeLa cells [4] = assay: CFTR Protein Expression Assay in HeLa Cells; assay type: cell-based, Human; conditions: LNPs encapsulating CFTR mRNA, N=4 wells; 5 h serum-free then 24 h; immunofluorescence vs PBS control
How it was run: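 HeLa cells dosed with CFTR mRNA LNPs (70 mM NaCl final buffer matrix) in serum-free MEM for 5 h, then complete MEM for 24 h. Fixed cells immunostained with anti-CFTR monoclonal and Alexa 488 secondary, imaged confocally; CFTR intensity per cell expressed as fold-change versus PBS buffer control, N=4 wells.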

[5] = CFTR mRNA nanoparticle with lipid amine
[6] = Luciferase mRNA nanoparticle modified with lipid amine

Structure (SMILES) | Diameter (nm) [1, 5] | PDI [1, 5] | Diameter (nm) [1, 6] | PDI [1, 6] | % Encapsulation (Ribogreen) [2, 5] | % Encapsulation (Ribogreen) [2, 6] | Average Relative Light Units ± Standard Deviation (HeLa cells [3]) | Average fold-change in CFTR signal intensity per cell compared to buffer control ± standard deviation (HeLa cells [4])
CC(C)CCC[C@@H](C)[C@H]1CC[C@H]2[C@@H]3CC=C4C[C@@H](OC(=O)CCCCC(=O)N(CCCN)CCCCNCCCN)CC[C@]4(C)[C@H]3CC[C@]12C [SA89, (3S,8S,9S,10R,13R,14S,17R)-10,13-dimethyl-17-((R)-6-methylheptan-2-yl)-2,3,4,7,8,9,10,11,12,13,14,15,16,17-tetradecahydro-1H-cyclopenta[a]phenanthren-3-yl 6-((3-aminopropyl)(4-((3-aminopropyl)amino)butyl)amino)-6-oxohexanoate trihydrochloride] | 86.5 nm | 0.15 | 77 nm | 0.16 | 98.6% | 99.7% | 8209.2 ± 4138.5 Relative Light Units | 3.7 ± 0.4 fold-change
CC[C@H](CC[C@@H](C)[C@H]1CC[C@H]2[C@@H]3CC=C4C[C@@H](OC(=O)CCCCC(=O)N(CCCN)CCCCNCCCN)CC[C@]4(C)[C@H]3CC[C@]12C)C(C)C [SA90, (3S,8S,9S,10R,13R,14S,17R)-17-((2R,5R)-5-ethyl-6-methylheptan-2-yl)-10,13-dimethyl-2,3,4,7,8,9,10,11,12,13,14,15,16,17-tetradecahydro-1H-cyclopenta[a]phenanthren-3-yl 6-((3-aminopropyl)(4-((3-aminopropyl)amino)butyl)amino)-6-oxohexanoate trihydrochloride] | 84.6 nm | 0.14 | 76 nm | 0.19 | 98.1% | 99.6% | 9337.4 ± 3055.2 Relative Light Units | 4.2 ± 0.4 fold-change
CC(C)CCC[C@@H](C)[C@H]1CC[C@H]2[C@@H]3CC=C4C[C@@H](OC(=O)N(CCCN)CCCCCCCCCCN)CC[C@]4(C)[C@H]3CC[C@]12C [SA95, (3S,8S,9S,10R,13R,14S,17R)-10,13-Dimethyl-17-((R)-6-methylheptan-2-yl)-2,3,4,7,8,9,10,11,12,13,14,15,16,17-tetradecahydro-1H-cyclopenta[a]phenanthren-3-yl (10-aminodecyl)(3-aminopropyl)carbamate dihydrochloride] | 83.6 nm | 0.14 | 75 nm | 0.20 | 99.3% | 99.7% | 22952.2 ± 5937.7 Relative Light Units | 4.2 ± 0.8 fold-change
CC[C@H](CC[C@@H](C)[C@H]1CC[C@H]2[C@@H]3CC=C4C[C@@H](OC(=O)N(CCCN)CCCCCCCCCCN)CC[C@]4(C)[C@H]3CC[C@]12C)C(C)C [SA96, (3S,8S,9S,10R,13R,14S,17R)-17-((2R,5R)-5-Ethyl-6-methylheptan-2-yl)-10,13-dimethyl-2,3,4,7,8,9,10,11,12,13,14,15,16,17-tetradecahydro-1H-cyclopenta[a]phenanthren-3-yl (10-aminodecyl)(3-aminopropyl)carbamate dihydrochloride] | 82.3 nm | 0.12 | 71 nm | 0.15 | 98.9% | 99.6% | 17172.8 ± 2176 Relative Light Units | 5.2 ± 0.7 fold-change
CC(C)CCC[C@@H](C)[C@H]1CC[C@H]2[C@@H]3CC=C4C[C@@H](SSCCC(=O)N(CCCN)CCCCCCCCN)CC[C@]4(C)[C@H]3CC[C@]12C [SA97, N-(8-Aminooctyl)-N-(3-aminopropyl)-3-(((3S,8S,9S,10R,13R,14S,17R)-10,13-dimethyl-17-((R)-6-methylheptan-2-yl)-2,3,4,7,8,9,10,11,12,13,14,15,16,17-tetradecahydro-1H-cyclopenta[a]phenanthren-3-yl)disulfaneyl)propanamide dihydrochloride] | 83.2 nm | 0.12 | 72 nm | 0.16 | 98.4% | 98.8% | 13144.4 ± 4350.5 Relative Light Units | 5.3 ± 1.0 fold-change
CC(C)CCC[C@@H](C)[C@H]1CC[C@H]2[C@@H]3CC=C4C[C@@H](OC(=O)CSSCC(=O)N(CCCN)CCCCNCCCN)CC[C@]4(C)[C@H]3CC[C@]12C [SA98, (3S,8S,9S,10R,13R,14S,17R)-10,13-dimethyl-17-((R)-6-methylheptan-2-yl)-2,3,4,7,8,9,10,11,12,13,14,15,16,17-tetradecahydro-1H-cyclopenta[a]phenanthren-3-yl 2-((2-((3-aminopropyl)(4-((3-aminopropyl)amino)butyl)amino)-2-oxoethyl)disulfaneyl)acetate trihydrochloride] | 82.8 nm | 0.14 | 70 nm | 0.15 | 93% | 97.0% | 80.7 ± 36.7 Relative Light Units | 1.0 ± 0 fold-change
CC(C)CCC[C@@H](C)[C@H]1CC[C@H]2[C@@H]3CC=C4C[C@@H](SSCCCCC(=O)N(CCCN)CCCCCCCCN)CC[C@]4(C)[C@H]3CC[C@]12C [SA110, N-(8-Aminooctyl)-N-(3-aminopropyl)-5-(((3S,8S,9S,10R,13R,14S,17R)-10,13-dimethyl-17-((R)-6-methylheptan-2-yl)-2,3,4,7,8,9,10,11,12,13,14,15,16,17-tetradecahydro-1H-cyclopenta[a]phenanthren-3-yl)disulfaneyl)pentanamide dihydrochloride] | 84.2 nm | 0.15 | 70 nm | 0.14 | 98.8% | 98.8% | 14227 ± 2513.9 Relative Light Units | 4.0 ± 0.2 fold-change
CC[C@H](CC[C@@H](C)[C@H]1CC[C@H]2[C@@H]3CC=C4C[C@@H](OC(=O)N(CCCCNCCC(C)(C)N)CCC(C)(C)N)CC[C@]4(C)[C@H]3CC[C@]12C)C(C)C [SA114, (3S,8S,9S,10R,13R,14S,17R)-17-((2R,5R)-5-ethyl-6-methylheptan-2-yl)-10,13-dimethyl-2,3,4,7,8,9,10,11,12,13,14,15,16,17-tetradecahydro-1H-cyclopenta[a]phenanthren-3-yl (3-amino-3-methylbutyl)(4-((3-amino-3-methylbutyl)amino)butyl)carbamate trihydrochloride] | 85.9 nm | 0.13 | 75 nm | 0.18 | 98.5% | 99.7% | 22594.3 ± 9128.4 Relative Light Units | 6.3 ± 1.3 fold-change
